Common to all, as to assay type: organism-based
The test system of data set [1] is Mus musculus. In words: Toxicity in mice after 17-35 days at a dose of 400 mg/kg/day; 19/9. The note with it: in vivo.
For data set [2], the system named is Mus musculus. Put plainly: Toxicity in mice after 17-29 days at a dose of 80 mg/kg/day; 21/9.5. The settings on record: in vivo.
Data set [3] relates to Mus musculus. In words: Toxicity in mice after 8->45 days at a dose of 300 mg/kg/day; 45/9. The note with it: in vivo, 1080 h.
The subject of data set [4] is Mus musculus. Put plainly: Toxicity in mice after 35->45 days at a dose of 133 mg/kg/day; 45/9.5. The note with it: in vivo, 1080 h.
Data set [5] concerns Mus musculus. Put plainly: Toxicity in mice after 29->45 days at a dose of 60 mg/kg/day; 45/9. The settings on record: in vivo, 1080 h.
The test system of data set [6] is Mus musculus. Put plainly: Toxicity in mice after 7-14 days at a dose of 100 mg/kg/day; 11/9.5. The settings on record: in vivo.
Data set [7] concerns Mus musculus. Put plainly: Toxicity in mice after 9-11 days at a dose of 200 mg/kg/day; 10/9.5. The settings on record: in vivo.
Data set [8] deals with Mus musculus. Put plainly: Toxicity in mice after 11-12 days at a dose of 19 and 38 mg/kg/day; 11/9.5. The settings on record: in vivo.
The test system of data set [9] is Mus musculus. Put plainly: Toxicity in mice after 10 days at a dose of 95 and 190 mg/kg/day; 10/9.5. The settings on record: in vivo, 240 h.
In data set [10] the test system is Mus musculus. Put plainly: Toxicity in mice after 32->45 days at a dose of 400 mg/kg/day; 45/9. The note with it: in vivo, 1080 h.
The test system of data set [11] is Mus musculus. Put plainly: Toxicity in mice after 14-45 days at a dose of 100 mg/kg/day; 37.5/9. The note with it: in vivo.
The subject of data set [12] is Mus musculus. Put plainly: Toxicity in mice after 15-45 days at a dose of 60 mg/kg/day; 30/9. The note with it: in vivo.
Data set [13] concerns Mus musculus. Put plainly: Toxicity in mice after 17-21 days at a dose of 60 mg/kg/day; 21/8.5. The note with it: in vivo.
Data set [14] concerns Mus musculus. Put plainly: Toxicity in mice after 13-15 days at a dose of 60 mg/kg/day; 14/8.5. The note with it: in vivo.
Data set [15] deals with Mus musculus. Put plainly: Toxicity in mice after 7-8 days at a dose of 200 mg/kg/day; 8/9. The settings on record: in vivo.
Data set [16] has as its system Mus musculus. In words: Toxicity in mice after 12-13 days at a dose of 100 mg/kg/day; 12/8. The note with it: in vivo.
For data set [17], the system named is Mus musculus. Put plainly: Toxicity in mice after 7 days at a dose of 200 mg/kg/day; 7/9. The settings on record: in vivo, 168 h.
For data set [18], the system named is Mus musculus. Put plainly: Toxicity in mice after 15-18 days at a dose of 60 mg/kg/day; 15.5/8.5. The note with it: in vivo.
For data set [19], the system named is Mus musculus. In words: Toxicity in mice after 7-8 days at a dose of 100 mg/kg/day; 7/9. The note with it: in vivo.
Data set [20] relates to Mus musculus. Put plainly: Toxicity in mice after 9-12 days at a dose of 200 mg/kg/day; 10.5/9.5. The note with it: in vivo.

Molecules are shown by their SMILES. Some results are limits rather than exact numbers.

Consider `CCCCCCCCCCCCCCCC(=O)OC[C@@H](COP(=O)(O)OP(=O)(O)OC[C@H]1O[C@@H](n2ccc(N)nc2=O)[C@@H](O)[C@@H]1O)OC(=O)CCCCCCCCCCCCCCC`, for which the median survival time in the data set with Mus musculus [1] was found to be 19 days; in the data set on Mus musculus [2] it was 21 days.
As for `CCCCCCCCCCCCCCCC(=O)OC[C@H](COP(=O)(O)OP(=O)(O)OC[C@H]1O[C@@H](n2ccc(N)nc2=O)[C@@H](O)[C@@H]1O)OC(=O)CCCCCCCCCCCCCCC`, the median survival time in the data set with Mus musculus [3], in the data set with Mus musculus [4] and in the data set on Mus musculus [5] was > 45 days each time.
On to `CCCCCCCCCCCCCCCC(=O)OC[C@H](COP(=O)(O)O)OC(=O)CCCCCCCCCCCCCCC.Nc1ccn([C@@H]2O[C@H](COP(=O)(O)O)[C@@H](O)[C@@H]2O)c(=O)n1`, for which the median survival time in the data set on Mus musculus [6] is 11 days; in the data set on Mus musculus [7], 10 days.
Consider `CCCCCCCCCCCCCCCC(=O)OC[C@@H](COP(=O)(O)O)OC(=O)CCCCCCCCCCCCCCC.Nc1ccn([C@@H]2O[C@H](COP(=O)(O)O)[C@@H](O)[C@@H]2O)c(=O)n1`, for which the median survival time in the data set with Mus musculus [8] stood at 11 days; with Mus musculus [9], 10 days.
As for `CCCCCCCCCCCCCCCC(=O)OCC(COP(=O)(O)OP(=O)(O)OC[C@H]1O[C@@H](n2ccc(N)nc2=O)[C@@H](O)[C@@H]1O)OC(=O)CCCCCCCCCCCCCCC` (mixture of isomers), the median survival time in the data set with Mus musculus [10] was > 45 days; with Mus musculus [11], 37.5 days; with Mus musculus [12], 30 days.
Consider `Nc1ccn([C@@H]2O[C@H](CO)[C@@H](O)[C@@H]2O)c(=O)n1` [CYTARABINE], for which the median survival time is 21 days in the data set with Mus musculus [13]; 14 days in the data set on Mus musculus [14]; 8 days in the data set with Mus musculus [15]; 12 days in the data set with Mus musculus [16]; 7 days with Mus musculus [17]; 15.5 days in the data set with Mus musculus [18]. In addition, the median survival time with Mus musculus [19] worked out at 7 days; in the data set with Mus musculus [20], 10.5 days.

(Values after ChEMBL document CHEMBL1124302, “Nucleoside conjugates. 10. Synthesis and antitumor activity of 1-beta-D-arabinofuranosylcytosine 5'-diphosphate-1,2-dipalmitins” (J Med Chem, 1988).)
